Here are results for four compounds from patent US7087729B1, “Peptide conjugates for the stabilization of membrane proteins and interactions with biological membranes” (University Health Network, priority 1999, dated 2006).

The conditions of data set [1]: cited from earlier work.
The target of the next data set is T1, bacteriorhodopsin (Halobacterium salinarum, UniProt P02945).
T1 construct: Purple membranes were isolated by overlaying 12.5 mL of the membrane suspension on a 40%/60% (10 mL/7.5 mL) sucrose gradient; made in house; host or cells: Halobacterium salinarium (strain a gift of J. Lanyi); protein isolated from purple membranes of the natural producer
T1 sequence (P02945 14-261 limits assumed): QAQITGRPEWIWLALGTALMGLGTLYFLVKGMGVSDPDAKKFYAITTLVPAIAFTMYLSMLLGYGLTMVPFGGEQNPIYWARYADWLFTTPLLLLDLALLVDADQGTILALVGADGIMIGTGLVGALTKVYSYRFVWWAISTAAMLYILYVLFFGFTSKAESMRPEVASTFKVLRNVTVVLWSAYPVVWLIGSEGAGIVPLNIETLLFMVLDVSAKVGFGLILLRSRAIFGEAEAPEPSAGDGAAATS
Put plainly: Stabilization of detergent-solubilized bacteriorhodopsin after exchange of OG for LPD; absorption spectrum of supernatant during storage. On the set-up: species or system Halobacterium salinarium. The note with it: stored in the dark at room temperature, spectra at 1 to 32 days, supernatant after 100,000xg.

Data set [2] is described as follows: Solubility of lipopeptide detergents in water. The class given is physicochemical. The method, then:
The LPDs with chain lengths from 10 to 16 carbons are soluble in water to over 10 mM, and the LPDs with chain lengths from 18 to 24 carbons are soluble to over 1 mM. […] As a control, a reference molecule known as C-0 is made with the same peptide scaffold, but without the coupled lipids. […] Every batch of peptide is analyzed by MS to confirm the synthesis.

Square brackets hold non-standard residues; d marks the D form. Peptide text beside a SMILES is read from it. * marks the point of attachment. X1 = CCCCCCCCCCCCCCCCCCCCCCCCCCCC(=O)*; Orn = NCCC[C@H](N)C(=O)O

Protocol for bacteriorhodopsin: The purple membranes were homogenized in 25 mM sodium phosphate, pH 6.9 with 1.5% OG (Anatrace, Maumee, Ohio) and mixed for 36 hours in the dark. After adjusting the pH to 5.5 with 0.1 N HCl, the solution was spun at 200,000×g for 45 minutes to obtain the soluble bacterioprhodopsin (BR) in the supernatant. The protein was concentrated to 5 mg/mL by ultrafiltration with an Amicon PM 10 membrane. BR was further purified from this solution by chromatography on a Superdex 75 gel filtration column in 25 mM sodium phosphate, pH 5.5, 1.2% (w/v) OG, at a flow rate of 1 mL/min.
Typically, the initial concentration of OG in the purified BR sample was approximately 50 mM, which is roughly twice the critical micelle concentration for this detergent.

On to `CCCCCCCCCCO[C@@H]1O[C@H](CO)[C@@H](O)[C@H](O)[C@H]1O` [decyl glucoside], for which the solubility in water in data set [1] is on record as 0.1 % (w/v).
`CCCCCCCCCCCCO[C@@H]1O[C@H](CO)[C@@H](O)[C@H](O)[C@H]1O` [dodecyl glucoside]: the solubility in water in data set [1] is recorded as 0.008 % (w/v).
As for `CCCCCCCCO[C@@H]1O[C@H](CO)[C@@H](O)[C@H](O)[C@H]1O` [OG, octyl β-D-glucopyranoside], the solubility in water entry in data set [1] is listed as “greater than 20 % (w/v)”. Moreover, the “preservation of the native bacteriorhodopsin absorption spectrum over storage time” value on bacteriorhodopsin is given as “lost the characteristic spectum for native bacteriorhodopsin within a few days”; on bacteriorhodopsin (listed as octyl glucoside (OG)) it was “loss of the native conformation of the protein over time”.
Take `CCCCCCCCCCCCCCCCCCCCCCCCCCCC(=O)NCCC[C@H](NC(=O)[C@H](C)NC(=O)[C@H](CCCCN)NC(=O)[C@H](C)NC(=O)[C@H](C)NC(=O)[C@H](CCCCN)NC(=O)[C@H](CCC(=O)O)NC(=O)[C@H](C)NC(=O)[C@H](C)NC(=O)[C@H](CCC(=O)O)NC(=O)[C@H](C)NC(=O)[C@H](C)NC(=O)[C@H](Cc1ccc(O)cc1)NC(=O)[C@H](CCCCN)NC(=O)[C@H](C)NC(=O)[C@H](C)NC(=O)[C@H](CCCCN)NC(=O)[C@H](CCC(=O)O)NC(=O)[C@H](C)NC(=O)[C@H](C)NC(=O)[C@H](CCC(=O)O)NC(=O)[C@H](C)NC(=O)[C@H](CCCNC(=O)CCCCCCCCCCCCCCCCCCCCCCCCCCC)NC(=O)[C@H](C)NC(C)=O)C(=O)N[C@@H](C)C(N)=O` [LPD-28] (Ac-A[Orn](X1)AEAAEKAAKYAAEAAEKAAKA[Orn](X1)A-NH2): the “solubility in water (in words)” value in data set [2] is reported as “poorly soluble in water”.
